This note sets out measurements from PubChem BioAssay AID1996.

Each structure is given as a SMILES string. In brackets after ≈: the same amount, converted by molar mass. Non-standard residues stand in square brackets, D forms with d. Residues, ends and D or L forms follow the SMILES beside them. *: point of attachment. Tic = O=C(O)[C@@H]1Cc2ccccc2CN1; Boc = CC(C)(C)OC(=O)* Some results are limits rather than exact numbers.

For orientation: solubility (kinetic) means the concentration staying in solution when a stock, usually in DMSO, is diluted into the medium.

The conditions of the series: buffer; pH 7.4; 200.0 µM.
For `CCOC(=O)CCSc1n[nH]c(=S)s1`, the kinetic solubility was more than 37.6 µg/mL.

`CCCCCOC(=O)NC1CCS(=O)(=O)C1` (configuration not stated) had a solubility (kinetic) of more than 37.4 µg/mL.

`CCCc1cc(C(=O)Nc2ccc(C(=O)OC)cc2)cs1`: the kinetic solubility was less than 0.6 µg/mL.

Regarding `Cc1ccc(S(=O)(=O)NCC(=O)Nc2ccc3c(c2)OCO3)cc1`, the solubility (kinetic) was found to be 49.4 µg/mL (≈ 142 µM).

On to `Cc1ncc(CN2CCCC(C(=O)c3cccc(Cl)c3)C2)s1` (configuration not stated), for which the kinetic solubility was 43.2 µg/mL (≈ 129 µM).

In turn, `CSc1ccc(CN2CCc3c([nH]c4ccccc34)C2)cc1` yielded a kinetic solubility of 2 µg/mL (≈ 6.48 µM). This solubility kinetic lies about 22-fold lower than the previous one.

With `O=C(Nc1ccncc1)C1CC(=O)N(c2ccc(F)cc2)C1` (configuration not stated), the kinetic solubility stood at 39.3 µg/mL (≈ 131 µM).

On to `CC1CC(C)CN(C(=O)c2ccc3c(c2)OCCO3)C1` (configuration not stated), for which the kinetic solubility is more than 41.3 µg/mL.

The compound `O=C(CSc1ncnc2sccc12)Nc1ccccc1` returned a solubility (kinetic) of 6.9 µg/mL (≈ 22.9 µM).

`Cc1ccc(NC(=O)CC2SCCNC2=O)cc1[N+](=O)[O-]` (configuration not stated) returned a kinetic solubility of 36.2 µg/mL (≈ 117 µM).

`CCN(CC(=O)Nc1ccc(NC(C)=O)cc1)S(=O)(=O)/C=C/c1ccccc1` came in with a kinetic solubility of 9.6 µg/mL (≈ 23.9 µM).

Regarding `N/C(=N\OC(=O)c1ccc([N+](=O)[O-])cc1)c1ccc(Br)cc1`, the kinetic solubility was less than 0.3 µg/mL.

On to `O=C1CSC(c2cccnc2)N1c1ccccc1` (configuration not stated), for which the solubility (kinetic) is more than 38.4 µg/mL.

For `CSc1ccc(/C=C2\NC(=O)NC2=O)cc1`, the kinetic solubility was found to be 9.8 µg/mL (≈ 41.8 µM).

For `CCCCn1c(O)c(/C=C2/C=CC=N2)c(=O)[nH]c1=O`, the solubility (kinetic) was 5.1 µg/mL (≈ 19.5 µM).

The compound `COc1ccccc1OCC(=O)OCC(=O)NC1CCCCC1` had a solubility (kinetic) of more than 48.2 µg/mL.

Consider `Cc1[nH]c(=S)c(C#N)c(C)c1CCC#N`, for which the kinetic solubility is more than 32.6 µg/mL.

For the compound `Nc1ncc([N+](=O)[O-])c(Oc2ccccc2F)n1`, the solubility (kinetic) was more than 37.5 µg/mL.

Compound `CCCCC(=O)Nc1cccc(NC(=O)c2cccnc2Cl)c1` showed a solubility (kinetic) of more than 49.8 µg/mL.

Regarding `COc1ccc(CC(=O)Nc2nccs2)cc1S(=O)(=O)N1CCOCC1`, the kinetic solubility was more than 59.6 µg/mL.

`CCCCNC(=O)CCc1nc2cccnc2n1Cc1ccccc1` returned a solubility (kinetic) of more than 50.5 µg/mL.

For `COc1ccc(NS(=O)(=O)c2cccc(C(=O)NCC(c3cccs3)N3CCOCC3)c2)cc1` (configuration not stated), the kinetic solubility is 71.3 µg/mL (≈ 142 µM).

In the case of `Cc1ccc(Cl)cc1NC(=O)CN1CCOCC1`, the solubility (kinetic) is more than 40.3 µg/mL.

The compound `CCN(CC)C(=O)CSc1nc(-c2ccccc2)cc(=O)[nH]1` registered a solubility (kinetic) of more than 47.6 µg/mL.

In turn, `O=C(OCCC1Oc2cccnc2NC1=O)c1ccc(F)cc1` (configuration not stated) displayed a solubility (kinetic) of 4.8 µg/mL (≈ 15.2 µM).

In the case of `O=C(c1cc2cc(F)ccc2[nH]1)N1CCc2ccccc21`, the solubility (kinetic) came out at 1.4 µg/mL (≈ 4.99 µM).

`CCc1nc(NCCO)c(C#N)c2c1CCCC2`: the solubility (kinetic) amounted to 35.5 µg/mL (≈ 145 µM).

In turn, `CCOC(=O)c1ccc(NC(=S)NC(=O)C2CCCC2)cc1` returned a kinetic solubility of less than 0.3 µg/mL.

In the case of `COc1ccc(C2NC(=O)CCC2[N+](=O)[O-])c(OC)c1` (configuration not stated), the solubility (kinetic) was more than 42 µg/mL.

In the case of `Cc1ccccc1N(Cc1cc(=O)[nH]c2ccccc12)C(=O)C(C)C`, the kinetic solubility was 36 µg/mL (≈ 108 µM).

On to `CCC(C(=O)Nc1ccc(C)cc1)c1ccccc1` (configuration not stated), for which the solubility (kinetic) is less than 0.5 µg/mL.

The compound `CCOc1ccc(-c2c(C)sc3nc[nH]c(=O)c23)cc1` yielded a kinetic solubility of 24.6 µg/mL (≈ 85.9 µM).

In turn, `CN1CCN(C(=O)CCC(=O)NCc2ccc(F)cc2)CC1` gave a kinetic solubility of 45.7 µg/mL (≈ 149 µM).

As to `CCCCOc1ccccc1C1NC(=O)CCC1[N+](=O)[O-]` (configuration not stated), the solubility (kinetic) was more than 43.9 µg/mL.

Consider `CCc1noc(C)c1C(=O)Nc1nc(-c2ccc(OC)cc2)cs1`, for which the kinetic solubility worked out at 2.3 µg/mL (≈ 6.7 µM).

As to `COc1ccc(N(CC(=O)N2CCOCC2)S(C)(=O)=O)cc1Cl`, the solubility (kinetic) was more than 54.4 µg/mL.

As for `OC1(C#CCN2CCCC2)c2ccccc2-c2ccccc21`, the solubility (kinetic) amounted to 11.4 µg/mL (≈ 39.4 µM).

`Cc1ccccc1OCC(=O)Nc1nc(-c2ccncc2)cs1` gave a kinetic solubility of 4.9 µg/mL (≈ 15.1 µM). Compared with the last compound, the solubility kinetic is about 2.3-fold lower.

Turning to `Cc1ccc(C)c(OCCC(=O)Nc2ccccc2C(=O)NC2CC2)c1`, the solubility (kinetic) worked out at 4.2 µg/mL (≈ 11.9 µM).

In turn, `CCC(=O)Nc1ccc2c(c1)nc(CN1CCCCC1)n2C` registered a kinetic solubility of more than 45.1 µg/mL.

Compound `Cc1cc(C)c(NC(=O)C2CCCO2)c(C)c1` (configuration not stated) showed a solubility (kinetic) of more than 35 µg/mL.

`CCOc1ccc(NC(=O)C(C)Sc2nccn2C)cc1` (configuration not stated) came in with a kinetic solubility of more than 45.8 µg/mL.

The compound `CC(C(=O)N1CCCC1)N(c1ccccc1)S(C)(=O)=O` (configuration not stated) had a solubility (kinetic) of more than 44.5 µg/mL.

As to `CCOc1ccc(C(=O)OC(C)CN2CCN(C)CC2)cc1.Cl` (configuration not stated), the kinetic solubility is more than 51.4 µg/mL.

Compound `O=C1CSc2ccc(C(=O)NCCc3ccc(Cl)cc3Cl)cc2N1` gave a solubility (kinetic) of 3.7 µg/mL (≈ 9.7 µM).

Compound `Cc1onc(-c2c(F)cccc2Cl)c1C(=O)NC1CC1` showed a solubility (kinetic) of more than 44.2 µg/mL.

On to `CC(NC(=O)c1ccc([N+](=O)[O-])o1)C12CC3CC(CC(C3)C1)C2` (configuration not stated), for which the solubility (kinetic) stood at 29.5 µg/mL (≈ 92.7 µM).

`C/C(=N\Nc1nccnc1Cl)c1ccc(F)cc1` gave a kinetic solubility of more than 39.7 µg/mL.

In turn, `C/C(=C\c1ccccc1)CN1CCN(C(C)C)C(CCO)C1` (configuration not stated) yielded a kinetic solubility of more than 45.4 µg/mL.

In the case of `CC(C)(C)OC(=O)N1Cc2ccccc2C[C@H]1C(=O)N1CCC[C@H]1C(=O)O` (Boc-[Tic]-Pro-OH), the kinetic solubility is 49.9 µg/mL (≈ 133 µM).

In the case of `CCCCC(=O)OCC(=O)c1[nH]c(C)c(C(C)=O)c1C`, the solubility (kinetic) came out at 36.9 µg/mL (≈ 132 µM). This solubility kinetic and that of the compound before are within 1.5-fold of each other.

`Cc1cc(C)nc(SCc2cn3c(C)cccc3n2)n1`: the kinetic solubility came out at 37.9 µg/mL (≈ 133 µM).
